The target of this test is T1, BREP (Oplophorus gracilirostris, UniProt Q9GV45, A31E/Q38R/Q45L/D46S/L54V/A60N/K70R/V71I/A81I/F95D/L99Q/M102K/D112N/I117V/P142E/Q151K/Y165I/C191H/N193R).
T1 construct: fusion of mScarlet-I and teLuc (NanoLuc variant) via three-residue linker; recombinant, pBAD/His B, purified; with mScarlet-I red fluorescent protein (engineered RFP, RET acceptor)
The test is described as follows: bioluminescence emission spectra. The format is biochemical. Conditions: MOPS pH 7.4; 25 uM potassiorin, 100 nM enzyme.

This is an account of results in article PMC11100015, “Bioluminescence Imaging of Potassium Ion Using a Sensory Luciferin and an Engineered Luciferase” (Journal of the American Chemical Society, 2024).

T1 sequence (Q9GV45 28-196 with the stated changes): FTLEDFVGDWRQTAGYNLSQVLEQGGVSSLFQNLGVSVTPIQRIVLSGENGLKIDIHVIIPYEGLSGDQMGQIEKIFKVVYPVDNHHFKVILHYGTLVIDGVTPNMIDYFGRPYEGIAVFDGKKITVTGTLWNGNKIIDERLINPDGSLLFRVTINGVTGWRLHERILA

For the molecule `O=c1c(Cc2ccc(OCCn3cc(-c4ccc(N5CCOCCOCCOCCOCCOCC5)cc4)nn3)cc2)nc2c(-c3ccccc3)[nH]c(-c3ccccc3)cn1-2` [compound 13, potassiorin], the bioluminescence emission spectra result was “We measured the emission spectra of BREP and potassiorin in the absence and presence”.
